Measurements published in publication PMC9762789, “Chromone-based monoamine oxidase B inhibitor with potential iron-chelating activity for the treatment of Alzheimer’s disease” (Journal of Enzyme Inhibition and Medicinal Chemistry, 2022).
Like-named read-outs stand apart in the source and are kept apart here.

How the values were obtained:
[1] = pKa determination by automated spectrophotometric titration; format: physicochemical; conditions: 0.1 M KCl solution
[2] = iron (III) affinity constants and pFe3+ by spectrophotometric titration; format: physicochemical; conditions: for Log β1 / Log β2 / Log β3: DMSO: KCl (0.1 M) = 1:1.5 (v/v); for pFe^3+: calculated from Log β values obtained in DMSO: KCl (0.1 M) = 1:1.5 (v/v)
[3] = biological target: T1, MAO-B (Homo sapiens, UniProt P27338); test: hMAO-B inhibition assay; format: biochemical; conditions: for inhibition at 0.1 µM: read-out: Inhibitory rate (%, 100 nM)
T1 construct: purchased Sigma-Aldrich
T1 sequence (P27338 1-520): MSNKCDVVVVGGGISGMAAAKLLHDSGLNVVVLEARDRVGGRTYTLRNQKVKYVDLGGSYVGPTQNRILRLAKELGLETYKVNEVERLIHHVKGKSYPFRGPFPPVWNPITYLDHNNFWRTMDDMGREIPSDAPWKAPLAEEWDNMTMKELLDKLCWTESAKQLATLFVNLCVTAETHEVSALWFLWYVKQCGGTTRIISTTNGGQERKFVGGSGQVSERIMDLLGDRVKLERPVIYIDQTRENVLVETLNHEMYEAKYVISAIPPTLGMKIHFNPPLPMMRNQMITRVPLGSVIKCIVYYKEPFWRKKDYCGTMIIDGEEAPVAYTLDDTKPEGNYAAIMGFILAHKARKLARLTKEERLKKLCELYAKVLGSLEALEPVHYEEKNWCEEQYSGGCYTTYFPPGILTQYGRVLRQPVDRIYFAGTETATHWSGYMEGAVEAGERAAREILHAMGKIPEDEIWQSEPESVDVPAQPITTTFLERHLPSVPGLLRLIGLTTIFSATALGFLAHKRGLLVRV
Experimental: (§1) The reagents and enzymes (Human MAO-B and Human MAO-A) applied in this experiment were purchased from Sigma-Aldrich. According to the manuals, all components (substrate solution and enzyme solution) are diluted and placed aside for use. The detailed process has been mentioned in our early work[34].

[4] = biological target: T2, Human MAO-A (Homo sapiens, UniProt P21397); test: hMAO-A inhibition assay; format: biochemical; conditions: for inhibition at 10 µM: read-out: hMAO-A inhibitory rate at 10 μM, 10 μM (highest concentration tested)
T2 construct: purchased Sigma-Aldrich
T2 sequence (P21397 1-527): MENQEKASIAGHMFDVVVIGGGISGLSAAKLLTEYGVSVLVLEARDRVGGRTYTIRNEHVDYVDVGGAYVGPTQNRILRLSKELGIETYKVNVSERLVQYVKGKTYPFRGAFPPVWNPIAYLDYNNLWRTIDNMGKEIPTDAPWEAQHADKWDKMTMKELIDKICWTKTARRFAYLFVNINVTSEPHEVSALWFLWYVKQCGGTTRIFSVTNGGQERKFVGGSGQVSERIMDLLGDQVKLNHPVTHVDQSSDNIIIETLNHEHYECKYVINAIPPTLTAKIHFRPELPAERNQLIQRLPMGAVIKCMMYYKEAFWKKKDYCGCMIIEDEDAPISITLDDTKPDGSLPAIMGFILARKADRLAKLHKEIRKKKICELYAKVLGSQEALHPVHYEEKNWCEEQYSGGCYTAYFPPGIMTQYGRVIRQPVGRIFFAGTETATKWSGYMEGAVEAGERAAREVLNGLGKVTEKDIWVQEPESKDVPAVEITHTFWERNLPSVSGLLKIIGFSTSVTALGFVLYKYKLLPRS
Experimental: Further, the inhibitory activity of compounds against hMAO-A isoform was tested and calculated as a selectivity index [Selectivity index (SI): IC50 (hMAO-A)/IC50 (hMAO-B)].
as §1

[5] = test system: scopolamine-induced cognitive impairment mice model; test: Morris water maze test, scopolamine-induced memory impairment; format: in vivo, ICR mice; set-up: Distance to first entry: unit not given here; conditions: 15 mg/kg, scopolamine 15 mg/kg, ICR mice, mean ± SEM, n = 15; for Latency to first entry: in s (unit assumed)
Description: To further explore the in vivo anti-AD effect of compound 17d on the scopolamine-induced cognitive impairment mice model, the Morris Water Maze experiment was selected; data are shown in Figure 7 and Table 5.
Figure 7.
Adult female ICR mice (weight 20–25 g) were obtained from the Zhejiang Academy of Medical Sciences (Hangzhou, China). Scopolamine hydrobromide and Pargyline were purchased from Aladdin Reagents. Memantine was purchased from Energy Chemical. All experiments were approved by the Laboratory Animals Ethical Committee of the Zhejiang University of Technology (No. 20211210103). In this test, mice were prepared as clarified and clear injections, consisting of 20% (2-Hydroxypropyl)-β-cyclodextrin, 10% DMSO, and PBS. […] Mice were administered at a frequency of once a day over 15 d with a fixed dosing schedule. The body weight of mice was measured during the experiment.
After eliminating environmental stress, the behavioural test was performed over the next five days. The mice were trained to find the platform (10 cm diameter) in the circular light-avoidance pool (120 cm diameter and 60 cm height) filled with water (40 cm, depth), which was described in detail in our previous study. All mice received at least one training session daily in four quadrants for four consecutive days before the probe trial of finding the platform within 120 s. Recordings were made with SMART version 3.0 (Panlab, Spain) and processed by Graphpad Prism version 6 software (Graphpad Software Inc., La Jolla, CA, USA).

Row | pKa ([1]; read-out: pKa1) | pKa ([1]; read-out: pKa2) | Log β1 [2] | Log β2 [2] | Log β3 [2] | pFe^3+ [2] | IC50 [3] [nM] | SI: hMAO-B selectivity index = IC50 (hMAO-A)/IC50 (hMAO-B) [3] | inhibition at 0.1 µM ([3]; hMAO-B, 100 nM) [%] | inhibition at 10 µM [4] [%] | melting point [°C] | Compound | also measured
1 | 2.76 | 9.53 | 13.13 | 24.78 | 33.73 | 17.89 | 102 ± 3.2 | >99 | 46 ± 0.7 | < 20 | 218 to 220 | Cc1c(O)c(=O)ccn1CCNCc1coc2cc(OCc3ccc(F)cc3)ccc2c1=O [Compound 17j, 1–(2-(((7-((4-Fluorobenzyl)oxy)-4-oxo-4H-chromen-3-yl)methyl)amino)ethyl)-3-hydroxy-2-methylpyridin-4(1H)-one] | –
2 | 2.76 | 9.83 | 13.32 | 25.08 | 34.89 | 18.12 | 88.7 ± 5.3 | >112 | 46.4 ± 1.3 | < 20 | 267 to 269 | COc1ccc2occ(CNCCn3ccc(=O)c(O)c3C)c(=O)c2c1 [Compound 17e, 3-Hydroxy-1–(2-(((6-methoxy-4-oxo-4H-chromen-3-yl)methyl)amino)ethyl)-2-methylpyridin-4(1H)-one] | –
3 | – | – | – | – | – | – | – | – | – | – | – | CC12CC3CC(C)(C1)CC(N)(C3)C2 [Memantine] | Entries to target [5]: 4.0 ± 0.3; Latency to first entry [5]: 13 ± 1; Entries to target ([5]; listed as memantine): 4.0 ± 0.3; Latency to first entry ([5]; listed as memantine): 13 ± 1
4 | 3.35 | 9.52 | 13.79 | 25.03 | 33.91 | 18.09 | 129.5 ± 0.8 | – | 41.2 ± 2.8 | < 20 | 230 to 232 | Cc1c(O)c(=O)ccn1CCNC(=O)c1coc2cc(OCc3cccc(Cl)c3)ccc2c1=O [Compound 15f, 7-((3-Chlorobenzyl)oxy)-N-(2–(3-hydroxy-2-methyl-4-oxopyridin-1(4H)-yl)ethyl)-4-oxo-4H-chromene-3-carboxamide] | –
5 | 2.73 | 9.69 | 13.20 | 24.70 | 33.77 | 17.45 | 76.4 ± 3.8 | 10.4 | 49 ± 0.6 | – | 169 to 171 | Cc1c(O)c(=O)ccn1CCNCc1coc2cc(OCc3ccccc3)ccc2c1=O [Compound 17f, 1–(2-(((7-(Benzyloxy)-4-oxo-4H-chromen-3-yl)methyl)amino)ethyl)-3-hydroxy-2-methylpyridin-4(1H)-one] | IC50 [4]: 795 ± 0.7 nM
6 | – | – | – | – | – | – | – | – | – | – | – | C#CCN(C)Cc1ccccc1 [Pargyline] | inhibition at 0.1 µM [3]: 48.9 ± 1.7%; Distance to first entry [5]: 2.6 ± 0.3; Entries to target [5]: 5.3 ± 0.9; Latency to first entry [5]: 11 ± 1; Distance to first entry ([5]; listed as pargyline): 2.6 ± 0.3; Entries to target ([5]; listed as pargyline): 5.3 ± 0.9; Latency to first entry ([5]; listed as pargyline): 11 ± 1
7 | 3.29 | 9.67 | 13.67 | 25.22 | 34.95 | 18.68 | 112 ± 1.3 | >89 | 42.2 ± 3.7 | < 20 | 268 to 270 | Cc1c(O)c(=O)ccn1CCNC(=O)c1coc2ccccc2c1=O [Compound 8a, N-(2–(3-hydroxy-2-methyl-4-oxopyridin-1(4H)-yl)ethyl)-4-oxo-4H-chromene-3-carboxamide] | –
8 | 2.75 | 9.76 | 13.31 | 25.00 | 34.07 | 17.55 | 86.3 ± 0.7 | >116 | 44.23 ± 0.1 | < 20 | 259 to 261 | Cc1ccc2occ(CNCCn3ccc(=O)c(O)c3C)c(=O)c2c1 [Compound 17c, 3-Hydroxy-2-methyl-1–(2-(((6-methyl-4-oxo-4H-chromen-3-yl)methyl)amino)ethyl)pyridin-4(1H)-one] | –
9 | 2.89 | 9.57 | 13.24 | 24.65 | 34.50 | 18.52 | 106.4 ± 0.2 | >94 | 42.4 ± 2.1 | < 20 | 246 to 248 | Cc1c(O)c(=O)ccn1CCNC(=O)c1coc2cc(OCc3ccc(F)cc3)ccc2c1=O [Compound 15e, 7-((4-Fluorobenzyl)oxy)-N-(2–(3-hydroxy-2-methyl-4-oxopyridin-1(4H)-yl)ethyl)-4-oxo-4H-chromene-3-carboxamide] | –
10 | 2.53 | 9.43 | 12.99 | 24.76 | 33.88 | 18.31 | 114 ± 3.8 | >88 | 43.1 ± 2 | < 20 | 226 to 228 | Cc1c(O)c(=O)ccn1CCNCc1coc2cc(OCc3cccc(Cl)c3)ccc2c1=O [Compound 17k, 1–(2-(((7-((3-Chlorobenzyl)oxy)-4-oxo-4H-chromen-3-yl)methyl)amino)ethyl)-3-hydroxy-2-methylpyridin-4(1H)-one] | –
11 | 2.68 | 9.62 | 13.02 | 24.75 | 33.78 | 17.66 | 78 ± 4.3 | 21.4 | 55.8 ± 2.7 | – | 211 to 213 | Cc1cccc(COc2ccc3c(=O)c(CNCCn4ccc(=O)c(O)c4C)coc3c2)c1 [Compound 17g, 3-Hydroxy-2-methyl-1–(2-(((7-((3-methylbenzyl)oxy)-4-oxo-4H-chromen-3-yl)methyl)amino)ethyl)pyridin-4(1H)-one] | IC50 [4]: 1666 ± 5.7 nM
